No end group written: not given here. *: point of attachment. Biotin = O=C1N[C@H]2[C@H](CS[C@H]2CCCCC(=O)*)N1
What was measured:
[1] = system: cell surface CLIP on Raji or Daudi cells; conditions: 24 and 48 hours; cited from earlier work
[2] = system: cell surface CD74 on Raji or Daudi cells; conditions: 24 and 48 hours; cited from earlier work
[3] = molecular target: gp41 HIV-1 envelope protein (gp41 fragment) of Example 14 (HIV-1); test: native gel electrophoresis, quantitative analysis
[4] = system: cell surface bound CLIP on Raji and Daudi cells; test: Competition of synthetic peptides with cell surface CLIP (Fitc anti-human CLIP); format: cell-based; conditions: biotinylated peptides
From the text: Based on a computational model comparing the peptide content of TNP mixture and identifying those peptides that would have the likeliest ability to compete for the peptide/antigen binding site for MHC class II (human HLA-DR, DP, and DQ), several peptide candidates were synthesized and examined for activity. The purpose of the study was to determine if synthetic peptides can compete for binding with CLIP peptides as measured with either Fitc anti-human CLIP antibody or, comparatively in the case of biotinylated peptides, with Streptavidin.
Cell Culture Conditions: The Raji and Daudi cell lines were purchased from American Type Culture Collection, were thawed, and grown in RPMI 1640 medium supplemented with standard supplements, including 10% fetal calf serum, gentamycin, penicillin, streptomycin, sodium pyruvate, HEPES buffer, 1-glutamine, and 2-ME.
Protocol: Cells were plated into a 12 well plate with 3 mls total volume containing approximately 1.5×10^6/well for Daudi cells and 3.0×10^6/well for Raji cells. Treatment groups included no treatment as control; MKN 3 and MKN 5 at 50 microMolar final concentration based on the reported molarity of the synthesized compounds.
The cells were incubated at 37° C. in an atmosphere containing 5% CO2 and approximately 92% humidity. The cells were incubated for 4 and 24 hours. At each time point, the cells from that experimental time were harvested and stained for flow cytometric analysis of cell surface expression of CLIP (MHC Class II invariant peptide, human) by using the commercially available (Becton/Dickinson/PHarmingen) anti-human CLIP Fitc. Catalogue #555981 versus Streptavidin.
Harvested cells were stained using standard staining procedure that called for a 1:100 dilution of Fitc-anti-human CLIP or isotype control versus 1:200 dilution of the commercially prepared Streptavidin. Following staining on ice for 25 minutes, cells were washed with PBS/FCS and resuspended in 100 microliters and added to staining tubes containing 400 microliters of PBS. Samples were acquired and analyzed on a Coulter Excel Flow Cytometer.
In the Histogram analyses of FIGS. 4-6 the Y axis represents cell number of the 5000 live cells versus the X axis which is a reflection of relative Fitc fluorescence versus Streptavidin-PE (eBioscience, Cat. #12-4317) that will bind with high affinity to cell-bound biotinylated peptides. The distance between the histogram from the isotype control staining versus the histogram reflecting the specific stain and is a measure of level of cell surface CLIP or the biotinylated peptide when stained with Streptavidin on a population of live Raji or Daudi cells as indicated.

Substance | Cell surface CLIP levels [1] | Cell surface CD74 levels [2] | binding stoichiometry (TNP to gp41) (gp41 per 1 TNP (ratio 1:0.8)) [3] | Cell surface bound CLIP (Fitc-Anti-CLIP) ([4]; 4 hours) | Cell surface bound CLIP (Fitc-Anti-CLIP) ([4]; 24 hours)
SGG GSK MRM ATP LLM QAL Y [MKN1] | alters | alters | – | – | –
thymus nuclear protein (TNP) extract from calf thymus | – | – | 0.8 | – | –
SGG GKA LVQ NDT LLQ VKG (Biotin-SGGGKALVQNDTLLQVKG) [TNP1] | – | – | – | small decreases | significant decreases
FRIMAVLAS [SGG GAN SGF RIM AVL ASG GQY, unmodified form is MKN.4] | – | – | – | small decreases | significant decreases
